Drawing on patent US12662491B2 (Redona Therapeutics, Inc., priority 2020, dated 2026), this text covers IC50 for 20 compounds.

As usually defined, the IC50 is the concentration at which inhibition is half-maximal.

This assay addresses T1, Zcchc11 enzyme (Homo sapiens, UniProt Q5TAX3).
T1 construct: made in house; host or cells: HEK293 cells (Zcchc11); E. coli Rosetta II (LIN28A)
T1 sequence (Q5TAX3 212-1420): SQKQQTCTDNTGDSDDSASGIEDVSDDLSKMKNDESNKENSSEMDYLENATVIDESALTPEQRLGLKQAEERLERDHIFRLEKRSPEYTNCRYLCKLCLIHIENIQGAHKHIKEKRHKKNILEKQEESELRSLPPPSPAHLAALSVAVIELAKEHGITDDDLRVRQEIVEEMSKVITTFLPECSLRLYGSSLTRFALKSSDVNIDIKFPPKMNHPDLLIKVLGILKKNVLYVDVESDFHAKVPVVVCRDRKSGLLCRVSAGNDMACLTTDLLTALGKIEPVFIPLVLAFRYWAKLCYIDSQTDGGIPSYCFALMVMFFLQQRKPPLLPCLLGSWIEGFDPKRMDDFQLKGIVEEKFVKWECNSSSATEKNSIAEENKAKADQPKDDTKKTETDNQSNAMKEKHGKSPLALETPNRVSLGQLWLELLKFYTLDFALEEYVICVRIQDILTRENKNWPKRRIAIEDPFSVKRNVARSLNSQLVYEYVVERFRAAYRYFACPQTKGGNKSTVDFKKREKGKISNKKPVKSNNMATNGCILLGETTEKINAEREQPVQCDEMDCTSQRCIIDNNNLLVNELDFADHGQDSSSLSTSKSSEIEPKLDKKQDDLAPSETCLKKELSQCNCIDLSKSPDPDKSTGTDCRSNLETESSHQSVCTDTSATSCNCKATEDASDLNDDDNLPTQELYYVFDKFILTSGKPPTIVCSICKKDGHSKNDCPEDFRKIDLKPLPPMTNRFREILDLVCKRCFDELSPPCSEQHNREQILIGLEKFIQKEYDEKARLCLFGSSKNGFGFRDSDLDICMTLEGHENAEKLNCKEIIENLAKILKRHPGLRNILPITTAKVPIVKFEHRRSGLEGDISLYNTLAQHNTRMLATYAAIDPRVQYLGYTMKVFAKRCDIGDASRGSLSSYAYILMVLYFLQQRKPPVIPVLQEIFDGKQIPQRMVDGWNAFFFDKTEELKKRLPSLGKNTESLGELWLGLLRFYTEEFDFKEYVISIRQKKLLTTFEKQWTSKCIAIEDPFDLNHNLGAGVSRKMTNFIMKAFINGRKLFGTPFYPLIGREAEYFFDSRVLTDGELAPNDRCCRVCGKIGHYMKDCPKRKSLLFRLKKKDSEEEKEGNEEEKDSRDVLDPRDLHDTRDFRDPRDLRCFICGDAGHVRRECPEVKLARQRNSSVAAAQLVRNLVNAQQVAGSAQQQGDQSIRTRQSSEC
Description: TUTase assay (Zcchc11 assay, Lin28a-dependent polyuridylation of pre-let-7). It is filed as biochemical. To be noted: Lin28a-dependent Zcchc11 (Z11) TUTase activity; read-out: Potency Lin28a-dep Z11 IC50. Put shortly: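 Polyuridylation measured as fluorescein loss when a rhodamine-labelled A20 probe anneals to U-tails added to fluorescein pre-let-7 (2 nM). Reaction: truncated Zcchc11 0.2 nM, E. coli-made LIN28A 10 nM, UTP 5 uM, HEPES pH 7.3, room temperature. Initial rates fitted to four-parameter IC50.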

Molecules are shown by their SMILES. A value given as a limit tells only on which side of the number the result lay.

Take `O=C(O)c1cn(-c2ccc(CO)cc2)c2cc(N3CCC[C@@H]3COc3ccccn3)c(F)cc2c1=O` [Compound 162, (R)-6-fluoro-1-(4-(hydroxy-methyl)phenyl)-4-oxo-7-(2-((pyridin-2-yloxy)methyl)pyrrolidin-1-yl)-1,4-dihydro-quinoline-3-carboxylic acid]: the IC50 was ≤ 1000 nM. The value for `O=C(O)c1cn(C2COC2)c2cc(N3CCC[C@@H]3COc3ccccn3)c(F)cc2c1=O` [Compound 163, (R)-6-fluoro-1-(oxetan-3-yl)-4-oxo-7-(2-((pyridin-2-yloxy)methyl)pyrrolidin-1-yl)-1,4-dihydro-quinoline-3-carboxylic acid] was 1000 to 10000 nM; that for `O=C(O)c1cn(-c2ccc(O)cc2C(F)(F)F)c2cc(N3CCC[C@@H]3COc3ccccn3)c(F)cc2c1=O` [Compound 164, (R)-6-fluoro-1-(4-hydroxy-2-(trifluoro-methyl)phenyl)-4-oxo-7-(2-((pyridin-2-yloxy)methyl)pyrrolidin-1-yl)-1,4-dihydro-quinoline-3-carboxylic acid] was 10000 to 50000 nM. The value for `O=C(O)c1cn(C2CC(CO)C2)c2cc(N3CCC[C@@H]3COc3ccccn3)c(F)cc2c1=O` (stereo partly drawn) [Compound 165, (R)-6-fluoro-1-(3-(hydroxy-methyl)cyclo-butyl)-4-oxo-7-(2-((pyridin-2-yloxy)methyl)pyrrolidin-1-yl)-1,4-dihydro-quinoline-3-carboxylic acid] was 10000 to 50000 nM; that for `O=C(O)c1cn(-c2ccc(O)cc2)c2cc(N3CCC[C@@H]3COc3ccccn3)c(F)cc2c1=O` [Compound 166, (R)-6-fluoro-1-(4-hydroxy-phenyl)-4-oxo-7-(2-((pyridin-2-yloxy)methyl)pyrrolidin-1-yl)-1,4-dihydro-quinoline-3-carboxylic acid] was ≤ 1000 nM; that for `CN(C)C1CN(c2ccc(-n3cc(C(=O)O)c(=O)c4cc(Cl)c(N5CCC[C@@H]5COc5ncncc5Cl)cc43)cn2)C1` [Compound 167, (R)-6-chloro-7-(2-(((5-chloro-pyrimidin-4-yl)oxy)methyl)pyrrolidin-1-yl)-1-(6-(3-(dimethyl-amino)azetidin-1-yl)pyridin-3-yl)-4-oxo-1,4-dihydro-quinoline-3-carboxylic acid] was ≤ 1000 nM. For `Cc1nn(C)cc1-n1cc(C(=O)O)c(=O)c2cc(Cl)c(N3CCC[C@@H]3COc3ncccc3Cl)cc21` [Compound 168, (R)-6-chloro-7-(2-(((3-chloropyridin-2-yl)oxy)methyl)pyrrolidin-1-yl)-1-(1,3-dimethyl-1H-pyrazol-4-yl)-4-oxo-1,4-dihydro-quinoline-3-carboxylic acid] the value was ≤ 1000 nM; for `CN(C)C1CN(c2ccc(-n3cc(C(=O)O)c(=O)c4cc(C#N)c(N5CCC[C@@H]5COc5ncccc5F)cc43)cn2)C1` [Compound 169, (R)-6-cyano-1-(6-(3-(dimethyl-amino)azetidin-1-yl)pyridin-3-yl)-7-(2-(((3-fluoropyridin-2-yl)oxy)methyl)pyrrolidin-1-yl)-4-oxo-1,4-dihydro-quinoline-3-carboxylic acid], ≤ 1000 nM; for `CN(C)C1CN(c2ccc(-n3cc(C(=O)O)c(=O)c4cc(Cl)c(N5CCC6CC65COc5ncccc5Cl)cc43)cn2)C1` (centres unmarked) [Compound 170, 6-chloro-7-(1-(((3-chloropyridin-2-yl)oxy)methyl)-2-azabicyclo [3.1.0]hexan-2-yl)-1-(6-(3-(dimethyl-amino)azetidin-1-yl)pyridin-3-yl)-4-oxo-1,4-dihydro-quinoline-3-carboxylic acid], ≤ 1000 nM. As for `O=C(O)c1cn(-c2ccc(Cl)c(O)c2)c2cc(N3CCC[C@@H]3COc3ncccc3Cl)ccc2c1=O` [Compound 171, (R)-1-(4-chloro-3-hydroxy-phenyl)-7-(2-(((3-chloropyridin-2-yl)oxy)methyl)pyrrolidin-1-yl)-4-oxo-1,4-dihydro-quinoline-3-carboxylic acid], the IC50 was > 50000 nM. For `CN(C)C1CN(c2ccc(-n3cc(C(=O)O)c(=O)c4cc(Cl)c(N5CCC[C@@H]5COc5nccn6ccnc56)cc43)cn2)C1` [Compound 172, (R)-6-chloro-1-(6-(3-(dimethyl-amino)azetidin-1-yl)pyridin-3-yl)-7-(2-((imidazo [1,2-a]pyrazin-8-yloxy)methyl)pyrrolidin-1-yl)-4-oxo-1,4-dihydro-quinoline-3-carboxylic acid] the value was ≤ 1000 nM; for `CN(C)C1CN(c2ccc(-n3cc(C(=O)O)c(=O)c4cc(Cl)c(N5CCC[C@@H]5COc5nnccc5Cl)cc43)cn2)C1` [Compound 173, (R)-6-chloro-7-(2-(((4-chloro-pyridazin-3-yl)oxy)methyl)pyrrolidin-1-yl)-1-(6-(3-(dimethyl-amino)azetidin-1-yl)pyridin-3-yl)-4-oxo-1,4-dihydro-quinoline-3-carboxylic acid], ≤ 1000 nM; for `COc1ccc(Cl)c(OCC23CC(CN2c2cc4c(cc2Cl)c(=O)c(C(=O)O)cn4-c2ccc(N)nc2)C3)n1` [Compound 176, 1-(6-aminopyridin-3-yl)-6-chloro-7-(1-[[(3-chloro-6-methoxy-pyridin-2-yl)oxy]methyl]-2-azabicyclo [2.1.1]hexan-2-yl)-4-oxoquinoline-3-carboxylic acid], 1000 to 10000 nM. For `COc1ccc(Cl)c(OCC23CC(CN2c2cc4c(cc2Cl)c(=O)c(C(=O)O)cn4-c2ccnc(N)c2)C3)n1` [Compound 177, 1-(2-aminopyridin-4-yl)-6-chloro-7-(1-[[(3-chloro-6-methoxy-pyridin-2-yl)oxy]methyl]-2-azabicyclo [2.1.1]hexan-2-yl)-4-oxoquinoline-3-carboxylic acid] the value was 1000 to 10000 nM; for `CN(C)C1CN(c2ccc(-n3cc(C(=O)O)c(=O)c4cc(C#N)c(N5C6CCC5(COc5ncccc5F)CC6)cc43)cn2)C1` [Compound 181, 6-cyano-1-(6-(3-(dimethyl-amino)azetidin-1-yl)pyridin-3-yl)-7-(1-(((3-fluoropyridin-2-yl)oxy)methyl)-7-azabicyclo [2.2.1]heptan-7-yl)-4-oxo-1,4-dihydro-quinoline-3-carboxylic acid], ≤ 1000 nM; for `CN(C)C1CN(c2ccc(-n3cc(C(=O)O)c(=O)c4cc(Cl)c(N5CCC5COc5ncccc5Cl)cc43)cn2)C1` (centres unmarked) [Compound 184, 6-chloro-7-(2-(((3-chloropyridin-2-yl)oxy)methyl)azetidin-1-yl)-1-(6-(3-(dimethyl-amino)azetidin-1-yl)pyridin-3-yl)-4-oxo-1,4-dihydro-quinoline-3-carboxylic acid formic acid], ≤ 1000 nM.

As for `CN(C)C1CN(c2ccc(-n3cc(C(=O)O)c(=O)c4cc(Cl)c(N5CCC[C@]5(C)COc5ncccc5Cl)nc43)cn2)C1` [Compound 185], the IC50 was ≤ 1000 nM.

As for `COc1ccnc(OC[C@H]2C[C@H]3C[C@H]3N2c2cc3c(cc2Cl)c(=O)c(C(=O)O)cn3-c2ccc(N(C)C)nc2)c1F` [Compound 196, 6-chloro-1-(6-(dimethyl-amino)pyridin-3-yl)-7-((1R,3R,5R)-3-(((3-fluoro-4-methoxy-pyridin-2-yl)oxy)methyl)-2-azabicyclo [3.1.0]hexan-2-yl)-4-oxo-1,4-dihydro-quinoline-3-carboxylic acid], the IC50 was ≤ 1000 nM.

For the compound `COc1ccnc(OC[C@H]2C[C@H]3C[C@H]3N2c2cc3c(cc2F)c(=O)c(C(=O)O)cn3-c2ccc(N(C)C)nc2)c1F` [Compound 197, 1-(6-(dimethyl-amino)pyridin-3-yl)-6-fluoro-7-((1R,3R,5R)-3-(((3-fluoro-4-methoxy-pyridin-2-yl)oxy)methyl)-2-azabicyclo [3.1.0]hexan-2-yl)-4-oxo-1,4-dihydro-quinoline-3-carboxylic acid], the half-inhibitory concentration (IC50) is ≤ 1000 nM. `COc1ccc(Cl)c(OC[C@H]2C[C@H]3C[C@H]3N2c2cc3c(cc2Cl)c(=O)c(C(=O)O)cn3-c2ccnc(N)c2)n1` [Compound 198, 1-(2-aminopyridin-4-yl)-6-chloro-7-((1R,3R,5R)-3-(((3-chloro-6-methoxy-pyridin-2-yl)oxy)methyl)-2-azabicyclo [3.1.0]hexan-2-yl)-4-oxo-1,4-dihydro-quinoline-3-carboxylic acid]: the IC50 was ≤ 1000 nM.
